SMILES strings stand for the structures. Structures can show the parent of a compound that is named as a salt.

The target in the assay is T1, Nicotinic acetylcholine receptor (Rattus norvegicus, UniProt P09483+P12390).
T1 construct: the rat was decapitated, and the whole brain was removed and homogenized; from tissue; host or cells: rat whole brain membrane fraction
T1 sequence (P09483 31-630): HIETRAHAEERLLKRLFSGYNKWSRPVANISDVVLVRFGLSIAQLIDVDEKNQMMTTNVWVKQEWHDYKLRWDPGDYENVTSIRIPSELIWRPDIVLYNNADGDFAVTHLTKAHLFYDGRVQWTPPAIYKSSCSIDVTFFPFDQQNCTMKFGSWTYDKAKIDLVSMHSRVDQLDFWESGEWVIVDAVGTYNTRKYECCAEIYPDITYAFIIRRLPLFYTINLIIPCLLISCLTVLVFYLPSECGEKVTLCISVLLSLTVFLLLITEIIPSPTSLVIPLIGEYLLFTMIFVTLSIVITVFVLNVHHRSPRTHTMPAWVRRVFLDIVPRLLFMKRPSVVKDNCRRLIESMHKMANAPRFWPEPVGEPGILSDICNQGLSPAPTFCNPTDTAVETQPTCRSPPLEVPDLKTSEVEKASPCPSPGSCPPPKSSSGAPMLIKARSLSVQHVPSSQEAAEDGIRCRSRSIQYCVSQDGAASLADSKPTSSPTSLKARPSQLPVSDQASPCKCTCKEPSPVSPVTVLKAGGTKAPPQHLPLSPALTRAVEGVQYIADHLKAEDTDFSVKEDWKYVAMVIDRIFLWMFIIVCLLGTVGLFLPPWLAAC
T1 sequence (P12390 25-500): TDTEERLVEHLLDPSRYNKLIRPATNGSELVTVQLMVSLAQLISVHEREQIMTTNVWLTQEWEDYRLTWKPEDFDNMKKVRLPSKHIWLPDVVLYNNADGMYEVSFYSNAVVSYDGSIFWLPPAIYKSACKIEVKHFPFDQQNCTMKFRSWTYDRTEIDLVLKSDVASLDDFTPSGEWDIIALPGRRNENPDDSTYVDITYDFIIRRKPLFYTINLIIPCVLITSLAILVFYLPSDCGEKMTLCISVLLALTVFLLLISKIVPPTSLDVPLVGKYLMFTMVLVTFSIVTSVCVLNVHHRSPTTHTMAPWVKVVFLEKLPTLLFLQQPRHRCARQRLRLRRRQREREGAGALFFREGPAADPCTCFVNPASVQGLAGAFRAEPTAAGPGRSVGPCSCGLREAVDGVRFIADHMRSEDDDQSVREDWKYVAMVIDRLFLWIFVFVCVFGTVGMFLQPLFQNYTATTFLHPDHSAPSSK
As to conditions: 10 nM of the test drug; 1 nM of ^3H-cytidine; rat whole brain membrane fraction; 4°C for 75 min; nonspecific binding with 10 µM (-)nicotine. The protocol: Nicotinic acetylcholine receptor binding assay
The membrane fraction was prepared in accordance with the protocol described in Brain Res., 100, 81-87 (1977). Thus, the rat was decapitated, and the whole brain was removed and homogenized with 15 volumes of cold 0.32 M aqueous sucrose solution using a Teflon homogenizer. The homogenate was centrifuged at 4°C and 1,000 x g for 10 mm. and the supernatant obtained was centrifuged at 4°C and 20,000 x g for 20 min. Then, ice-cold distilled water was added to the pellet, and the pellet was suspended using Hiscotron®. The suspension was centrifuged at 4°C and 8,000 x g for 20 min. and the supernatant and the buffy coat layer were recovered and centrifuged again at 4°C and 40,000 x g for 20 min. The pellet obtained was suspended in cold distilled water and stored at -80°C until used.
The receptor binding experiment was performed in accordance with the protocol described in J. Pharamcol. Exp. Ther., 270, 310-318 (1994). Thus, the rat whole brain membrane fraction (ca 200 µg) was incubated in BSS-Tris buffer [composition mM: NaCl 120, KCl 5, CaCl22, MgCl22, Tris-HCl 50 (pH=7.4, at 4°C)] containing 1 nM of ^3H-cytidine and 10 nM of the test drug at 4°C for 75 min. To stop the reaction, 4 ml of cold BSS-Tris buffer was added and the reaction mixture was immediately suction-filtered on GF/B glass fiber filter paper which had been pre-soaked in 0.5% polyethyleneimine. The filter paper was recovered, 4 ml of ACS-II (Amersham, TM) was added, and the ^3H radioactivity was determined with a scintillation counter. Based on the value (specific binding) obtained after subtraction of the ^3H-binding (nonspecific binding) amount in the presence of 10 µM (-)nicotine, the inhibition rate of ^3H-cytidine binding at the 10 nM concentration of each drug was calculated.
Consider `c1cncc(C2CC3CCC2NC3)c1` (stereo not drawn) [Example 1, Syn-6-(3-pyridyl)-2-azabicyclo[2. 2. 2]octane oxalate], for which the “Inhibition of ^3H-Cytidine binding” value turned out to be 94%.
To `Cc1cc(C2CC3CCC2NC3)on1` (stereo not drawn) [Example 18, Syn-6-(3-methyl-5-isoxazolyl)-2-azabicyclo[2. 2. 2]octane] belongs 84%; to `c1ncc(C2CC3CCC2NC3)cn1` (stereo not drawn) [Example 16, Syn-6-(5-pyrimidinyl)-2-azabicyclo[2. 2. 2]octane], 93%.
To `C#Cc1cncc(C2CC3CCC2NC3)c1` (stereo not drawn) [Example 28, Syn-6-(5-ethynyl-3-pyridyl)-2-azabicyclo[2. 2. 2]octane] belongs 91%; to `c1cncc(C2CC3CCCC2NC3)c1` (stereo not drawn) [Example 31, Syn-8-(3-pyridyl)-7-azabicyclo[3. 2. 2.]nonane], 84%; to `C1=C(c2cnccn2)C2CCC1CN2` (stereo not drawn) [Example 23, 6-(2-Pyrazinyl)-2-azabicyclo[2. 2. 2]oct-5-ene], 39%.
To `c1cncc(C2CC3CC2CN3)c1` (stereo not drawn) [Example 30, Syn-5-(3-pyridyl)-2-azabicyclo[2. 2. 1]heptane] belongs 87%.
On to `c1ccc(-c2cncc(C3CC4CCC3NC4)c2)cc1` (stereo not drawn) [Example 29, Syn-6-(5-phenyl-3-pyridyl)-2-azabicyclo[2. 2. 2]octane], for which the “Inhibition of ^3H-Cytidine binding” value turned out to be 86%.
Then `Brc1cncc(C2=CC3CCC2CN3)c1` (stereo not drawn) [Example 24, 5-(5-Bromo-3-pyridyl)-2-azabicyclo[2. 2. 2]oct-5-ene], with 92%.
